Measurements: ChEMBL document CHEMBL6092220 (J Med Chem, 2024)
pIC50: −log10 of the molar value. Activity calls are given as the source filed them. The calls are words filed in the database; no cut-off is given here.

Key:
[1] = Apparent volume of distribution in Sprague-Dawley rat at 5 mg/kg, iv; format: ADME, organism-based; conditions: in vivo, read-out: Vz
[2] = Clearance in Beagle dog assessed as hepatic blood flow at 1 mg/kg, iv; format: ADME, organism-based, Canis lupus familiaris; conditions: in vivo
[3] = target: T1, Protein cereblon/Signal transducer and activator of transcription 3 (Mus musculus) (UniProt P42227+Q8C7D2); assay: In-vivo PROTAC activity at STAT3/CRBN in female CB17 SCID mouse assessed as STAT3 depletion liver at 5 mg/kg, iv measured at 1 hr by immunobloting analysis; format: functional, organism-based
[4] = target: T2, Protein cereblon/Signal transducer and activator of transcription 1-alpha/beta (Homo sapiens, UniProt P42224+Q96SW2); assay: PROTAC activity at STAT1/CRBN in human SU-DHL-1 cells assessed as reduction in STAT1 level upto 40 uM incubated for 20 hrs by Western blot analysis; format: cell-based
[5] = Drug concentration in female CB17 SCID mouse spleen at 5 mg/kg, iv measured at 1 hr by LC-MS/MS analysis; format: ADME, organism-based; conditions: read-out: Ct
[6] = target: T2, Protein cereblon/Signal transducer and activator of transcription 1-alpha/beta; assay: PROTAC activity at STAT1/CRBN in human PBMC cells assessed as reduction in STAT1 level incubated for 20 hrs by Western blot analysis; format: cell-based
[7] = Drug concentration in female CB17 SCID mouse liver at 5 mg/kg, iv measured at 48 hrs by LC-MS/MS analysis; format: ADME, organism-based; conditions: read-out: Ct
[8] = Plasma protein binding in human assessed as unbound fraction at 10 uM; format: ADME, cell-free
[9] = Apparent permeability across apical to basolateral side in human Caco-2 cells; format: ADME, cell-based
[10] = Cmax in Sprague-Dawley rat at 5 mg/kg, iv; format: ADME, organism-based; conditions: in vivo
[11] = target: T3, Protein cereblon/Signal transducer and activator of transcription 3 (Homo sapiens, UniProt P40763+Q96SW2); assay: PROTAC activity at his-SUMO-tagged STAT3 (127 to 688 residues)/CRBN in human PBMC cells assessed as reduction in STAT3 level incubated for 20 hrs by Western blot analysis; format: cell-based
[12] = Stability in rat plasma assessed as parent compound remaining at […]; format: ADME, cell-free; conditions: read-out: Stability
[13] = target: T3, Protein cereblon/Signal transducer and activator of transcription 3; assay: PROTAC activity at his-SUMO-tagged STAT3 (127 to 688 residues)/CRBN in human SU-DHL-1 cells assessed as reduction in STAT3 level at 0.1 to 4000 nM incubated for 20 hrs by Western blot analysis relative to control; format: cell-based; conditions: dose 0.1-4000 nM
[14] = target: T1, Protein cereblon/Signal transducer and activator of transcription 3 (Mus musculus); assay: In-vivo PROTAC activity at STAT3/CRBN in female CB17 SCID mouse assessed as STAT3 depletion spleen at 5 mg/kg, iv measured upto 72 hrs by immunobloting analysis; format: functional, organism-based
[15] = Stability in rat Hepatocyte assessed as half life; format: ADME, cell-based; conditions: hepatocytes
[16] = AUC (0 to t) in ICR mouse at 5 mg/kg, iv; format: ADME, organism-based; conditions: in vivo
[17] = Drug concentration in female CB17 SCID mouse liver at 5 mg/kg, iv measured at 24 hrs by LC-MS/MS analysis; format: ADME, organism-based; conditions: read-out: Ct
[18] = Toxicity in mouse at 5 to 20 mg/kg, iv; format: organism-based; conditions: in vivo, dose 5-20 mg/kg
Cytochrome P450 1A2 = Cytochrome P450 1A2 (Homo sapiens, UniProt P05177); assay: Inhibition of CYP1A2 (unknown origin); format: ADME
[19] = target: T1, Protein cereblon/Signal transducer and activator of transcription 3 (Mus musculus); assay: In-vivo PROTAC activity at STAT3/CRBN in female CB17 SCID mouse assessed as reduction STAT3 level spleen at 10 mg/kg, iv measured at 48 hrs by Western blot analysis; format: functional, organism-based; parameters: scale not given: the % may be the effect or the level left
[20] = target: Protein cereblon/Signal transducer and activator of transcription 4 (Homo sapiens, UniProt Q96SW2+Q14765); assay: PROTAC activity at STAT4/CRBN in human PBMC cells assessed as reduction in STAT4 level incubated for 20 hrs by Western blot analysis; format: cell-based
SU-DHL-1 = assay: Antiproliferative activity against human SU-DHL-1 cells assessed as cell growth inhibition incubated for 4 days by celltiter-glo assay; format: functional, cell-based; conditions: SU-DHL-1, 96 h
[21] = Stability in human Hepatocyte assessed as half life; format: ADME, cell-based; conditions: hepatocytes
[22] = target: T2, Protein cereblon/Signal transducer and activator of transcription 1-alpha/beta; assay: PROTAC activity at STAT1/CRBN in human MOLM16 cells assessed as reduction in STAT1 level at > 8 uM incubated for 4 hrs by Western blot analysis; format: cell-based

## COC(=O)N1CC[C@H]2CC[C@@H](C(=O)N[C@@H](CCC(N)=O)C(=O)N[C@@H](Cc3ccc(F)c(F)c3)C(=O)N3CCC(CCC#Cc4cccc5c4CN(C4CCC(=O)NC4=O)C5=O)CC3)N2C(=O)[C@@H](NC(=O)c2cc3cc(C(F)(F)P(=O)(O)O)ccc3s2)C1 (stereo not given in full)
[1]
  Vd: 0.12 L/kg
[2]
  QH: 2.7%
[3]
  Activity: > 70%
[4]
  Activity: inactive
[5]
  concentration at 1 h: 2870 ng/g
[6]
  DC50: 1.6 µM
[7]
  concentration at 48 h: 1130 ng/g
[8]
  Fu: 0.5%
[9]
  Papp: 0.14 10^-6 cm/s
[10]
  Cmax: 82.6 µg/mL
[11]
  DC50: 0.0001 µM
[11]; dose 0.1-4000 nM
  Activity: Dose-dependent-effect
[12]
  remaining at 2 h: 94%
[13]
  Emax: > 95%
[14]
  Activity: Active
[15]
  t1/2: > 2 h
[16]
  AUC(0-t): 859 µg·h/mL
[17]
  concentration at 24 h: 1250 ng/g
[18]
  Activity: Non-toxic
Cytochrome P450 1A2
  pIC50: < 5.00
[19]
  Activity: > 90%
[20]
  DC50: 1.6 µM
SU-DHL-1
  pIC50: 6.37
[21]
  t1/2: > 2 h
[22]
  Activity: Active
